# From PubChem BioAssay AID1963832 (Molecular Pharmacology Branch, DTP, NCI, 2024)
# Several values for one entry are separate records, joined by “and”; a condition that tells them apart may be missing. Equal values may be shown once.
# System: 885724-159-R-J1-PDC complex spheroid viability
# Assay: Anticancer human tumor 885724-159-R-J1-PDC patient-derived pancreatic adenocarcinoma cell line growth inhibition [POLQ]
# Settings: for viability, T/C: stronger effect = lower value
# Method: Multicellular complex tumor spheroid response to Polymerase (POL) inhibitors (novobiocin, ART-558, RP6685) in combination with a variety of drugs and investigational agents in selected tumor cell lines
# The POL inhibitors (novobiocin, ART-558, and RP6685) were evaluated both individually and in combination with standard of care and investigational anticancer small molecules within a complex spheroid model of solid tumors. . Complex spheroids include a stromal component modeled by human endothelial cells (HUVEC) and fibroblasts modeled by human mesenchymal stem cells (MSCs). The concentration ranges selected for each drug and investigational agent were based upon clinically achievable concentrations if the clinical Cmax of the agent was known.
# Compounds. The drugs and investigational agents: novobiocin (NSC847541), ART-558 (NSC835418), RP-6685 (NSC848927), peposertib (NSC802822), ceralasertib (NSC780249), elimusertib (NSC800525), camonsertib (NSC841442), AZD-1390 (NSC803789), olaparib (NSC753686), talazoparib (NSC767125), rucaparib (NSC756644), sotorasib (NSC818433), MRTX-1133 (NSC836407), SN-38 (NSC673596), topotecan (NSC609699), epotoside (NSC141540), doxorubicin (NSC123127), gemcitabine (NSC613327), 5-fluorouracil (NSC19893), paclitaxel (NSC125973), vemurafenib (NSC761431), MSA-2 (NSC828583), SN-011 (NSC837082), adavosertib (NSC754352), prexasertib (NSC758257), carboplatin (NSC241240) and oxaliplatin (NSC266046), were obtained from the National Cancer Institute (NCI) Developmental Therapeutics Program Chemical Repository (21). The FDA-approved anticancer drug set is available from the Developmental Therapeutics Program at https://dtp.cancer.gov/organization/dscb/obtaining/. […] The stock solutions were prepared in dimethyl sulfoxide (DMSO, Sigma-Aldrich, St. Louis, MO, cat. D2650), except for the platinum compounds which were prepared in saline (Quality Biological, Gaithersburg, MD, cat. 114-055-101), at 800-fold the tested concentration and stored at -70 degrees C prior to their use. All drugs and investigational agents were tested over a range starting from a high concentration at or near the clinical Cmax and decreasing in half-log increments. If the clinical Cmax for an agent had not been determined, the highest concentration tested was 10 microM, except for SN-38, which was tested at a high concentration of 1 microM.
# Cell Culture. All cells were maintained in an incubator at 37 degrees C and 5% CO2 with 95% humidity. The PDC lines were cultured according to standard operating procedures established by the NCI PDMR (https://pdmr.cancer.gov). Table 3 of the manuscript, lists the cell lines along with the number of the three cell types plated to form the mct-spheroids and media for tumor cell growth. After thawing, all PDC lines, except 997537-175-T-J1-PDC and 415267-285-R-J2-PDC, were cultured in Matrigel-coated flasks prepared with a working solution of 1X Ham's F-12 nutrient mix, without supplementation (Thermo Fisher Scientific, cat. 11765054), 100 U/mL penicillin-streptomycin (Thermo Fisher Scientific, cat. 15140122), and 2.5% Matrigel (Corning Inc., Corning, NY, cat. 354248) for the first three passages. The two PDC lines 997537-175-T-J1-PDC and 415267-285-R-J2-PDC were cultured on uncoated flasks. The 857933-349-R-J2-PDC line was cultured in 6C/Colon 1B media containing advanced DMEM/F-12 (Thermo Fisher Scientific, cat. 12634028), 10 mM HEPES (Thermo Fisher Scientific, cat. 15630080), 1X GlutaMAX supplement (Thermo Fisher Scientific, cat. 35050061), 0.1 mg/mL primocin (InvivoGen, San Diego, CA, cat. ant-pm-2), 10% defined fetal bovine serum, heat inactivated (HyClone Laboratories Inc., Logan, UT, cat. SH30070.03HI), 50% L-WRN conditioned media (ATCC, cat. CRL-3276), 1.25 mM N-Acetyl-L-cysteine (Sigma-Aldrich, cat. A9165), 10 mM nicotinamide (Sigma-Aldrich, cat. N0636), 1X B-27 supplement (Thermo Fisher Scientific, cat. 17504044), 1X N-2 supplement (Thermo Fisher Scientific, cat. […]
# [1] = compound alone, run of 11/27/2023
# [2] = compound alone, run of 12/05/2023
# 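Also: spheroids exposed to compounds for 7 days.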
IC50 [2],SMILES,"viability, T/C (compound 0.00316 µM)","viability, T/C (compound 0.01 µM)","viability, T/C (compound 0.0316 µM)","viability, T/C (compound 0.1 µM)","viability, T/C (compound 0.316 µM)","viability, T/C (compound 1 µM)",IC50 (curve of compound),"viability, T/C (compound 0.00949 µM)","viability, T/C (compound 0.03 µM)","viability, T/C (compound 0.0949 µM)","viability, T/C (compound 0.3 µM)","viability, T/C (compound 0.949 µM)","viability, T/C (compound 3 µM)","viability, T/C (compound 0.000316 µM)","viability, T/C (compound 0.001 µM)","viability, T/C (compound 3.16 µM)","viability, T/C (compound 10 µM)",IC50 [1]
,C=CCn1c(=O)c2cnc(Nc3ccc(N4CCN(C)CC4)cc3)nc2n1-c1cccc(C(C)(C)O)n1,96.5% and 99.3% and 105%,95.4% and 94.4% and 90.4%,93.3% and 87.4% and 93.7%,85.1% and 77.1% and 79.6%,55.8% and 56.4% and 55.1%,44.7% and 48.3% and 49.7%,577 nM and 767 nM and 846 nM,,,,,,,,,,,
,CC(=O)O[C@H]1C(=O)[C@@]2(C)[C@H]([C@H](OC(=O)c3ccccc3)[C@]3(O)C[C@H](OC(=O)[C@H](O)[C@@H](NC(=O)c4ccccc4)c4ccccc4)C(C)=C1C3(C)C)[C@]1(OC(C)=O)CO[C@@H]1C[C@@H]2O,,,,,,,> 3000 nM,65.2% and 64.9% and 66%,56.1% and 54% and 50.9%,56.4% and 63.5% and 54.9%,63.1% and 64.1% and 57.5%,67.5% and 71.9% and 63.7%,68.5% and 70.2% and 60.7%,,,,,
,CC[C@@]1(O)C(=O)OCc2c1cc1n(c2=O)Cc2cc3c(CN(C)C)c(O)ccc3nc2-1,98.8% and 97.1% and 92.2%,89.7% and 86.8% and 86.5%,80.4% and 78.2% and 74.8%,57.3% and 62.5% and 57.7%,,,> 100 nM,,,,,,,97.3% and 109% and 93.8%,102% and 92% and 99%,,,
,CCc1c2c(nc3ccc(O)cc13)-c1cc3c(c(=O)n1C2)COC(=O)[C@]3(O)CC,76.2% and 80.4% and 69%,56% and 61.6% and 54.3%,53.4% and 55% and 47.8%,47.3% and 54.5% and 50.5%,32% and 33.2% and 35.3%,5.28% and 5.56% and 4.88%,55.4 nM and 88.2 nM and 65.5 nM,,,,,,,,,,,
,CNCc1ccc(-c2[nH]c3cc(F)cc4c3c2CCNC4=O)cc1,,,109% and 96.8% and 102%,102% and 92.6% and 112%,88.9% and 91.8% and 107%,87.8% and 98.4% and 99.9%,> 10000 nM,,,,,,,,,89.9% and 93.1% and 107%,93% and 91% and 83.8%,
,COC1C(OC(N)=O)C(O)C(Oc2ccc3c(O)c(NC(=O)c4ccc(O)c(CC=C(C)C)c4)c(=O)oc3c2C)OC1(C)C (stereo not given),,,94.1% [middle of 13 runs],95.9% [middle of 13 runs],98.5% [middle of 13 runs],98.8% [middle of 12 runs],,,,,,,,,,98.5% [middle of 13 runs],106% [middle of 13 runs],> 10000 nM
,COc1cc(C2c3cc4c(cc3C(OC3OC5COC(C)OC5C(O)C3O)C3COC(=O)C23)OCO4)cc(OC)c1O (stereo not given),,,94.8% and 95.3% and 106%,86.5% and 92.2% and 82.3%,75.8% and 85.9% and 68.5%,64.5% (2×) and 73%,8150 nM and > 10000 nM and 4590 nM,,,,,,,,,58.4% and 57.7% and 55.9%,48% and 53.2% and 42.6%,
,COc1cccc(OCCCN)c1-c1cc(Nc2cnc(C#N)cn2)n[nH]1,62.5% and 76.4% and 69.2%,46.4% and 49.5% and 54.3%,45.3% and 44.2% and 49.7%,42.2% and 45.4% and 51.1%,44.9% and 42.6% and 47%,44.4% and 47.1% and 48%,7.82 nM and 9.69 nM and 32.6 nM,,,,,,,,,,,
,COc1cccc2c1C(=O)c1c(O)c3c(c(O)c1C2=O)CC(O)(C(=O)CO)CC3OC1CC(N)C(O)C(C)O1 (stereo not given),,,72.9% and 74.1% and 66.6%,54.6% and 56% and 97.5%,30.8% and 36.2% and 31.9%,11.2% and 13.3% and 8.99%,128 nM and 146 nM and 209 nM,,,,,,,,,5.6% and 5.49% and 5.32%,7.5% and 6.14% and 6.82%,
> 10000 nM,Cc1cccc(N(C)C(=O)C2C(O)CCN2c2nc(C)cc(C(F)(F)F)c2C#N)c1 (stereo not given),,,96.2% [middle of 13 runs],97.6% [middle of 13 runs],102% [middle of 13 runs],100% [middle of 13 runs],,,,,,,,,,99.2% [middle of 13 runs],,> 10000 nM
,Cn1ncnc1[C@H]1c2n[nH]c(=O)c3cc(F)cc(c23)N[C@@H]1c1ccc(F)cc1,91.6% and 90.1% and 98.2%,103% and 94.9% and 99.3%,97.7% and 93.4% and 103%,83.7% and 84.4% and 85.2%,,,> 100 nM,,,,,,,96.8% and 84.9% and 99.5%,94.3% and 95.2% and 99.7%,,,
> 10000 nM,Nc1ccc(C#CCN(C(=O)Cc2ncc(C(F)(F)F)cc2C(F)(F)F)c2ccc(F)cc2)nn1,,,94.8% [middle of 13 runs],93.2% [middle of 13 runs],97% [middle of 13 runs],96.2% [middle of 13 runs],,,,,,,,,,97.6% [middle of 13 runs],105% [middle of 12 runs],
,Nc1ccn(C2OC(CO)C(O)C2(F)F)c(=O)n1 (stereo not given),,,62.8% and 66.8% and 60.1%,51.6% and 57% and 53.9%,50.6% and 51% and 51.5%,51.7% and 53% (2×),560 nM and 1160 nM and 4380 nM,,,,,,,,,51.6% and 53.4% and 54.6%,46% and 42.3% and 39.7%,
,O=C(c1cc(Cc2n[nH]c(=O)c3ccccc23)ccc1F)N1CCN(C(=O)C2CC2)CC1,,,103% and 105% (2×),97.6% and 102% and 98%,97.1% and 109% and 95.8%,94% and 107% and 93.8%,> 10000 nM,,,,,,,,,93.9% and 95.7% and 87.6%,78.1% and 78.9% and 82.2%,
,O=c1[nH]cc(F)c(=O)[nH]1,,,98.3% and 96.3% and 103%,102% and 95.3% and 108%,103% and 89.2% and 105%,87.9% and 98.7% and 102%,> 10000 nM,,,,,,,,,87.6% and 89.9% and 91.7%,75% and 75.8% and 71.4%,
